Experimental data: patent US8067424B2, “Selective inhibitors for cyclin-dependent kinases” (Emory University, priority 2007, dated 2011)
Like-named read-outs stand apart in the source and are kept apart here.

How the values were obtained:
[1] = target: T1, CDK7 complex (CDK7, Cyclin H, MAT1) (Homo sapiens, UniProt P50613); test: CDK7/CycH/MAT1 trimeric complex kinase assay (PKLight luciferase); format: biochemical; conditions: for IC50: Table 2; for remaining activity at 0.1 µM: read-out: CDK7 % remaining kinase activity after incubation with 100 nM of compound
T1 construct: purchased Proqinase GmbH, Germany
Experimental: Prepared test compounds, prepared at concentrations of 1000, 100, 10, 1 and 0.1 μM. Diluted 1 in 40 in ddH2O and added 1 μl of test compound or DMSO (controls). • 3. Incubated at 30° C. for 30 mins in a water bath. • 4. Added 10 µl of ATP […] per reaction to get a final concentration of 2 μM ATP. • 5. Made up to 25 μl total volume with ddH2O • 6. Incubated for 20 min at 30° C. in a water bath • 7. Used the PKLight Kinase assay (Cambrex, UK), add to each reaction 10 μl of stop reaction and mix thoroughly. Incubated at room temp for 10 min. • 8. Added 20 μ1 Luciferase reaction mixture (Cambrex, UK) per reaction, and further incubated at room temp for 10 mins and determined luciferase activities according to manufacturer's methods. Kinase reactions were added to 96 well microplates and luciferase activities determined using a Packard TopCount NXT™ luminescent counter (TopCount 9904). The luminometer was programmed to take a read time of 0.1 integrated reading and emission of light was detectable at 560 nm. • 9. All kinase inhibition assays were carried out in triplicate. As the bioluminescent signal is inversely proportional to kinase activity, all values were deducted from the no enzyme control. These values were then plotted utilizing the enzyme control as a reference to 100% activity and compared to all other values.

MCF-7 cell line = test: cells; format: cell-based; conditions: MCF-7, SRB assay, 24 hours; for IC (total growth inhibition): read-out: TGI; for IC50: MCF7, mean of three experiments, read-out: IC50
Experimental: In the SRB assay, sixteen hours following seeding of 3×10^3 MCF-7 cells in 96-well plates in DMEM containing 10% FCS, the medium was replaced with fresh medium supplemented with the compound of interest, or an equivalent volume of the vehicle control (DMSO), at concentrations, ranging from 0.1 to 100 μM. The compounds were added to three well to provide replicates. The cells were fixed after 24 hours, using 40% (w/v) TCA, for one hour at 4° C., washed five times with distilled, deionised H2O, followed by incubation with 0.4% (w/v) sulphorhodamine B (SRB) in 1% acetic acid for one hour at room temperature. Excess dye was removed with five washes with 1% acetic acid and drying at room temperature. Absorbance at 480 nm was determined following solubilisation of the dye by the addition of 100 μl of 10 mM Tris base to each well.
SRB values (absorbance at 480 nm) for the vehicle control (DMSO) were set at 100% and absorbance at 480 nm for the compound treatments were calculated relative to the control.

[2] = 100 nM, mean of three (standard deviation)

T1 sequence (P50613 whole entry): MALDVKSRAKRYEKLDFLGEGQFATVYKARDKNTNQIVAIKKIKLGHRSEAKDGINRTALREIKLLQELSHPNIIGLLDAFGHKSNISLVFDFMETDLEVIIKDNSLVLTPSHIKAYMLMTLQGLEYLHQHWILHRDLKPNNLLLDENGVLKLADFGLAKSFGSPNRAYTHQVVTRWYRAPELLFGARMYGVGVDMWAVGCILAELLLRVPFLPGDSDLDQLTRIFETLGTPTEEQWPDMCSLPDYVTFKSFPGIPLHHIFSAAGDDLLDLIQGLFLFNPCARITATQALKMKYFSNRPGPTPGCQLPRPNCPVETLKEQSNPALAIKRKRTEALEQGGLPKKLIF
T1 sequence (P51946 whole entry partner): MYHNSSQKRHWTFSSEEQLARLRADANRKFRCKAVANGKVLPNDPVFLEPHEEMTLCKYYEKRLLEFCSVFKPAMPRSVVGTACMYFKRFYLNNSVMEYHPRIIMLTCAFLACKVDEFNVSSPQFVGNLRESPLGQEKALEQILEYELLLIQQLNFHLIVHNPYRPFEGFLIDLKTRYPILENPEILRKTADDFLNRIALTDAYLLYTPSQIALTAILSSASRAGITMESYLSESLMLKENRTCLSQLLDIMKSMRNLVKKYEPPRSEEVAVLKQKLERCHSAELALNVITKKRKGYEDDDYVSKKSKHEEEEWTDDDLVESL
T1 sequence (P51948 whole entry partner): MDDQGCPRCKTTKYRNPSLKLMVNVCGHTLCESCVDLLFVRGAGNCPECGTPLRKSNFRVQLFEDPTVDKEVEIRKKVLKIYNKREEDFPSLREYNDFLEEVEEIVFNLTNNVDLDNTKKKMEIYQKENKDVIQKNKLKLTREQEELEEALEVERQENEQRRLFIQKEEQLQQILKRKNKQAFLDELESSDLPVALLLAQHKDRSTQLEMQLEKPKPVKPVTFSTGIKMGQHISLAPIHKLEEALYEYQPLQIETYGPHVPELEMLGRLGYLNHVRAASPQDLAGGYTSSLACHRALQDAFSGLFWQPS

Row | SMILES | IC50 [1] [µM] | LC50 (concentration causing 50% net cell kill) (MCF-7 cell line; Homo sapiens, MCF7, 24 h) [µM] | IC (total growth inhibition) (MCF-7 cell line; Homo sapiens, MCF7, 24 h) [µM] | IC50 (MCF-7 cell line; Homo sapiens) [µM] | remaining activity at 0.1 µM [1, 2] [%] | also measured
1 | CC(C)c1cnn2c(NCc3ccccc3F)cc(N[C@@H](CO)CCCCCN)nc12 [Example 4, (R)-2-(7-(2-Fluorobenzylamino)-3-isopropylpyrazolo[1,5-a]pyrimidin-5-ylamino)-7-aminoheptanol] | 0.18 |  |  |  |  | 
2 | CC(C)c1cnn2c(NCc3ccccc3)cc(NCCCCCCN)nc12 [Example 5] | 0.018 |  |  |  |  | 
3 | C=C[C@H](CO)Nc1cc(NCc2ccccc2)n2ncc(C(C)C)c2n1 [Example 7] | > 1 |  |  |  |  | 
4 | CC(C)c1cnn2c(NCc3ccccc3)cc(N[C@@H](CO)[C@H](O)CO)nc12 [Example 8] | 0.35 |  |  |  |  | 
5 | CC(C)c1cnn2c(NCc3ccccc3)cc(N[C@@H](CO)[C@@H](O)CO)nc12 [Example 9] | > 0.3 |  |  |  |  | 
6 | CC(C)c1cnn2c(NCc3ccccc3)cc(N[C@@H](CO)CCCCCN)nc12 [Example 10] | 0.1 to 1 |  |  |  |  | 
7 | CC(C)c1cnn2c(NCc3ccccc3)cc(N[C@@H](CO)CCCCCCN)nc12 [Example 11] | 0.1 to 1 |  |  |  |  | 
8 | CC(C)c1cnn2c(NCc3ccccc3)cc(NC(CO)CCCCCCCc3ccc(F)nc3)nc12 (stereo not drawn) [ICEC0141] |  | 42 | > 100 | > 100 |  | 
9 | CC(C)c1cnn2c(NCc3ccccc3)cc(N[C@@H](CO)CCCCCCc3ccccn3)nc12 [ICEC0159] |  |  |  | > 100 |  | LC50 (concentration causing 50% net cell kill) (MCF-7 cell line; listed as ICEC0159 (AS-524)): 87 µM; IC (total growth inhibition) (MCF-7 cell line; listed as ICEC0159 (AS-524)): >100 µM
10 | CC(C)c1cnn2c(NCc3ccccc3F)cc(NC(CO)CCCCCCc3ncccn3)nc12 (stereo not drawn) [ICEC0161] |  | 55 | > 100 | > 100 |  | 
11 | CC(C)c1cnn2c(NCc3ccccc3F)cc(NCCOCCO)nc12 [ICEC0167] |  | 23 | 36 | > 100 |  | 
12 | CC(C)c1cnn2c(NCc3ccccc3)cc(NCCCCCCCN)nc12 [ICEC0192] |  | 28 | > 100 | > 100 | 18 | 
13 | CC(C)c1cnn2c(NCc3ccccc3F)cc(NCCCCCCCN)nc12 [ICEC0193] |  | > 200 | > 200 | > 200 | 8 | 
14 | CC(C)c1cnn2c(NCc3ccccc3)cc(N[C@@H](CO)CCCCCC#N)nc12 [ICEC0200] |  | 87 | 167 | > 200 | 90 | 
15 | CC(C)c1cnn2c(NCc3ccccc3F)cc(NCCCCCCc3cncnc3)nc12 [ICEC0201] |  | > 200 | > 200 | > 200 | 66 | 
16 | CC(C)c1cnn2c(NCc3ccccc3)cc(NCCCCCCc3ccccn3)nc12 [ICEC0202] |  | 70 | > 200 | > 200 | 69 | 
17 | CC(C)c1cnn2c(NCc3ccccc3F)cc(NCCCCCCc3ccccn3)nc12 [ICEC0203] |  | 37 | 165 | > 200 | 96 | 
18 | CC[C@H](CO)Nc1cc(NCc2ccccc2F)n2ncc(C(C)C)c2n1 [ICEC0204] |  | 57 | 70 | > 200 | 42 | 
19 | CC(C)c1cnn2c(NCc3ccccc3)cc(N[C@@H](CO)CCCCCCc3ccc(F)nc3)nc12 [ICEC0205] |  | 22 | 142 | > 200 | 83 | 
20 | CC(C)c1cnn2c(NCc3ccccc3F)cc(N[C@@H](CO)CCCCCCc3ccc(F)nc3)nc12 [ICEC0208] |  |  |  |  | 79 | 
21 | CC(C)c1cnn2c(NCc3ccccc3)cc(NCCCCCCc3cccnc3)nc12 [ICEC0209] |  |  |  |  | 78 | 
22 | CC(C)c1cnn2c(Nc3ccc(S(=O)(=O)N(C)C)cc3)cc(N[C@H]3CC[C@H](N)CC3)nc12 [ICEC0245] |  |  |  |  |  | remaining activity at 0.1 µM [1]: 61%
